Measured values: patent US20110104301A1, “METHODS OF REDUCING PAIN AND INFLAMMATION” (Georgetown University, A Congressionally Chartered …, priority 2008, published 2011)
Entries after “also recorded” stand apart in the source; their conditions may differ.

How the values were obtained:
TRPA1 [1] = biological target: T1, TRPA1 (Rattus norvegicus, UniProt Q6RI86); experiment: Whole-cell patch-clamp of TRPA1-expressing HEK293 cells; type: cell-based; conditions: for Activation of TRPA1 currents by VGAs: 0.9 mM, voltage-clamped HEK293 cells
T1 construct: expressed in transfected cells; host or cells: HEK 293F
T1 sequence (Q6RI86 whole entry): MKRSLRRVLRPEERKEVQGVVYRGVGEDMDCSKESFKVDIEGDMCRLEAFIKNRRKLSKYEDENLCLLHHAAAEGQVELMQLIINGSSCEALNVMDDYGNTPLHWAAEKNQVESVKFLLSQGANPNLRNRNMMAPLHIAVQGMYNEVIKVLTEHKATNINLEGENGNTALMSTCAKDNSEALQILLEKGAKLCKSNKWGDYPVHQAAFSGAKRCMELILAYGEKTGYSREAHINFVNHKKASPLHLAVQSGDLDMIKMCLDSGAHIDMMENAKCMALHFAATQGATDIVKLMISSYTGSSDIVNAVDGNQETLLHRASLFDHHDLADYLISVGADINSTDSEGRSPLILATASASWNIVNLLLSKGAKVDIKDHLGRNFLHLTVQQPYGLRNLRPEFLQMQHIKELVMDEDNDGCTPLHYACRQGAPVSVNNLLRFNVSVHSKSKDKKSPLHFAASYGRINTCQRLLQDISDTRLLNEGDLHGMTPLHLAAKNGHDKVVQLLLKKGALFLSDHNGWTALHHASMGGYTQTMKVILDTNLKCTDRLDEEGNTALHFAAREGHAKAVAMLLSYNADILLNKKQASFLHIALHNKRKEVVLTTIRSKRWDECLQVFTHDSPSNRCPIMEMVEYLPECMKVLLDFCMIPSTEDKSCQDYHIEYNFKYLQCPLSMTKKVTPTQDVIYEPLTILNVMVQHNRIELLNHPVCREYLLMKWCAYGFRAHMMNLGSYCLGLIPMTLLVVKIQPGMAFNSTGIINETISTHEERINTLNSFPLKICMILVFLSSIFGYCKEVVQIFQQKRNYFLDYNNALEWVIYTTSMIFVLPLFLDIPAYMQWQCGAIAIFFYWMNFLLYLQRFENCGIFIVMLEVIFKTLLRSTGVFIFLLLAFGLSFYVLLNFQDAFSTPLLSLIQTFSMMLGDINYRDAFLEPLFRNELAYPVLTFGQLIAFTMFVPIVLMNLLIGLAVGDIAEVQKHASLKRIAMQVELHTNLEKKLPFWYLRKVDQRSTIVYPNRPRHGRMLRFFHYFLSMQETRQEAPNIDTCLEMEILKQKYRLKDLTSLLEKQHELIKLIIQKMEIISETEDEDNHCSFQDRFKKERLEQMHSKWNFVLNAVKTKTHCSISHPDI
Procedure: Electrophysiology. […] Whole-cell and single-channel patch-clamp recordings were performed by using an EPC8 amplifier (HEKA Electronics). For whole-cell and excised patch recordings the bath solution contained 140 mMNaCl, 4 mMKCl, 1 mMMgCl2, 1.2 mMCaCl2, 10 mMHepes, 10 mM glucose, pH 7.3. For cell-attached experiments, NaCl was replaced with KCl in the bath solution. […] For neuronal recording NaCl was replaced with K-gluconate (plus 1 mMATP, 0.2 mM GTP). Solutions were applied via a gravity-fed system. […] Voltage-dependent properties were measured as described in Matt and Ahern, J. Physiol. […] The baseline currents under control conditions were subtracted. For cell-attached experiments, peak amplitudes were measured from all-points histograms, and open probability was measured as NPo>750 ms. Defolliculated Xenopus laevis oocytes were injected with ≈10 ng of hTRPA1 (gift of Ardem Patapoutian, The Scripps Research Institute, La Jolla, Calif.).
Volatile General Anesthetics and Chemicals. Saturated stock solutions of volatile GAs were prepared in gas-tight bottles by dissolving excess anesthetic agents in bath solutions overnight. From these stock solutions fresh dilutions were made up every 40-60 min. Concentrations of GAs in the bath solutions were verified by using a modified head-space gas chromatography method. […] Alcohols with <6 carbons were dissolved directly into extracellular solution, and alcohols containing 6 carbons or more were dissolved in DMSO and then diluted into extracellular solutions that were sonicated for 20 min. All other drugs were prepared as stock solutions in DMSO or ethanol and diluted into physiological solution before experiments.

TRPA1 [2] = biological target: T1, TRPA1; experiment: Single-channel recordings of TRPA1 (outside-out / cell-attached patches); type: cell-based; conditions: for TRPA1 single-channel conductance in presence of VGA: 0.23 mM isoflurane, 0.9 mM desflurane, reduced from ≈110 pS; for Single TRPA1 channel activity: cell-free patches
Procedure: (§1) Electrophysiology. HEK 293F cells were transfected with rat TRPV1, TRPA1, and TRPM8 (gift of David Julius, University of California, San Francisco). Dorsal root ganglia were cultured from adult mice (C57B16/J wild type and TRPV1-null, and mixed B6/129 background TRPA1-null) in Neurobasal +2% B-27 medium (Invitrogen), 0.1% L-glutamine and 1% penicillin/streptomycin. Whole-cell and single-channel patch-clamp recordings were performed by using an EPC8 amplifier (HEKA Electronics). For whole-cell and excised patch recordings the bath solution contained 140 mMNaCl, 4 mMKCl, 1 mMMgCl2, 1.2 mMCaCl2, 10 mMHepes, 10 mM glucose, pH 7.3. For cell-attached experiments, NaCl was replaced with KCl in the bath solution. The pipette solution contained 140 mM NaCl or KCl, 10 mM Hepes, 5 mM EGTA, pH 7.3. For neuronal recording NaCl was replaced with K-gluconate (plus 1 mMATP, 0.2 mM GTP). Solutions were applied via a gravity-fed system. Separate outlets were used to apply capsaicin and AITC solutions to avoid contamination. Voltage-dependent properties were measured as described in Matt and Ahern, J. Physiol. 585:469-482 (2007). Current-voltage measurements comprised a 200-ms ramp from −150 mV to +200 mV. The baseline currents under control conditions were subtracted. For cell-attached experiments, peak amplitudes were measured from all-points histograms, and open probability was measured as NPo>750 ms. Defolliculated Xenopus laevis oocytes were injected with ≈10 ng of hTRPA1 (gift of Ardem Patapoutian, The Scripps Research Institute, La Jolla, Calif.). Oocytes were placed in a Perspex chamber and continuously superfused (5 ml min^−1) with Ca^2+-free solution containing 100 mM NaCl, 2.5 mM KCl, 5 mM Hepes, 1 mM MgC12 and titrated to pH 7.3 with ˜5 mM NaOH.

hTRPA1 = biological target: T2, hTRPA1 (Homo sapiens, UniProt O75762); experiment: AITC-evoked currents in TRPA1-expressing Xenopus oocytes; type: cell-based; conditions: VGAs 0.5-0.65 mM, AITC 10 μM
T2 construct: expressed in transfected cells; host or cells: Xenopus laevis oocytes (injected)
T2 sequence (O75762 whole entry): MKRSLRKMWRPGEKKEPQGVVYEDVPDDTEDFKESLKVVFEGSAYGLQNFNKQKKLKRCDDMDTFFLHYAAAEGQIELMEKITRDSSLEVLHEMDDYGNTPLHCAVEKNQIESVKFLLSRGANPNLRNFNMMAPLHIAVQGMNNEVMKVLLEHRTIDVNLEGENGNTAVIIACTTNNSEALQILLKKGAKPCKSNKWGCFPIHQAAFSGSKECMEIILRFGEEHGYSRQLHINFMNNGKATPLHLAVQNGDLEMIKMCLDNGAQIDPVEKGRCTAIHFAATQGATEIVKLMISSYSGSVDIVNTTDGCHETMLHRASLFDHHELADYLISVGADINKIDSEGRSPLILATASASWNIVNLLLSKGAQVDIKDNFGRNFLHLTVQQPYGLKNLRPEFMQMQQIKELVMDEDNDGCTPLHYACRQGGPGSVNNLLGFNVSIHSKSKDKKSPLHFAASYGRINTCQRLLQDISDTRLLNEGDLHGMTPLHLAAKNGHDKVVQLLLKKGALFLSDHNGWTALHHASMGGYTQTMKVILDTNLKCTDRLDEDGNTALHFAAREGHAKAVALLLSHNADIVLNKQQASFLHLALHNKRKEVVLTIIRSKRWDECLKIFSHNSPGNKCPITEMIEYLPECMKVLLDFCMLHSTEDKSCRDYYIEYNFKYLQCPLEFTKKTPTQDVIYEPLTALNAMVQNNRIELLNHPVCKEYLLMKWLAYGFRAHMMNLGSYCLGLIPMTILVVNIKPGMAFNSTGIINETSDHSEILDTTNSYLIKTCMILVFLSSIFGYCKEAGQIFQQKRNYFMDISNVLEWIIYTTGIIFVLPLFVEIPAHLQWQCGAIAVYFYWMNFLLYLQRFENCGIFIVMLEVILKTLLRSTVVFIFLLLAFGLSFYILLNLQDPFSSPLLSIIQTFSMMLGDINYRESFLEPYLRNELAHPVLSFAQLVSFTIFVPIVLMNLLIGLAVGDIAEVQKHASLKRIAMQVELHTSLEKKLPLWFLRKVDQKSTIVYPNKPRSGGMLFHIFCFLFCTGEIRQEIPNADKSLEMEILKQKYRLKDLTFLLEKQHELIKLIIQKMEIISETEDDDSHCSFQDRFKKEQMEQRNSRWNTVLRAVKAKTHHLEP
Procedure: as §1

TRPV1 = TRPV1 (Rattus norvegicus, UniProt O35433); experiment: Voltage-clamp of TRPV1-expressing Xenopus oocytes (capsaicin, protons, heat); type: cell-based; conditions: for Temperature threshold of TRPV1 heat activation: control ~46° C.
Sequence of TRPV1 (O35433 whole entry, the tested form may be a part): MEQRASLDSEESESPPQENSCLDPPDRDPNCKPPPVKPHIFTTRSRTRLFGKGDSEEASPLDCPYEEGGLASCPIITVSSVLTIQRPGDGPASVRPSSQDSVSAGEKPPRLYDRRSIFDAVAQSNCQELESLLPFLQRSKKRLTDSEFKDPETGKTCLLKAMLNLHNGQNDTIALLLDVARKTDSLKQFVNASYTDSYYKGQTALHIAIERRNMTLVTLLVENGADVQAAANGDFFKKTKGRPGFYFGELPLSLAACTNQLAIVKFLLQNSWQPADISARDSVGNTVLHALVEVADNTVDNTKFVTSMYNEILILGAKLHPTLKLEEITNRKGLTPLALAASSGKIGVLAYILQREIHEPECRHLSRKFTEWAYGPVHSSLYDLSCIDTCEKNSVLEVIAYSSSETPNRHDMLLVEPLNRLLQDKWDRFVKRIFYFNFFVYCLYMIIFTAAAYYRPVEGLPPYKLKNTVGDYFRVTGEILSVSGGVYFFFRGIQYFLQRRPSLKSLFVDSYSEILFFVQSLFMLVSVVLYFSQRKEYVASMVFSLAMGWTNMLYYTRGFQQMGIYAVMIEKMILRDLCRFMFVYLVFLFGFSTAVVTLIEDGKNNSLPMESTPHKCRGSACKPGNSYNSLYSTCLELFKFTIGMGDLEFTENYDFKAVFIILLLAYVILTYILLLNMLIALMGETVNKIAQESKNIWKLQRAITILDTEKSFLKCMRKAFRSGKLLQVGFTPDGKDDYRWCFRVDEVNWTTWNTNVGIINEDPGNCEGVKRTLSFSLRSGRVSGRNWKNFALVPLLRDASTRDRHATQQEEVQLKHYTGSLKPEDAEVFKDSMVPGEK
Procedure: Oocyte electrophysiology. […] Oocytes were placed in a Perspex chamber and continuously superfused (5 ml min-1) with Ca2+-free solution containing (in mM): 100 NaCl, 2.5 KCl, 5 HEPES, 1 MgCl2 and titrated to pH 7.3 with ˜5 mM NaOH. For solutions <pH 6.0, HEPES was replaced with either 5 mM MES or 5 mM sodium citrate. Oocytes were routinely voltage-clamped at −60 mV at 22-23° C. For heat activation, bath temperature was raised from ˜22-50° C. over ˜100 s using an in-line solution heater (Warner Instruments). The temperature was continuously monitored with a probe placed within 2 mm of the oocyte. The temperature-activation threshold was defined as a 20% increase in current above baseline.
Volatile general anesthetics. Saturated stock solutions of volatile general anesthetics (VGAs) were prepared in gas-tight bottles by dissolving excess anesthetic agents in bath solutions and stirring vigorously overnight. From these stock solutions fresh dilutions were made up every 40-60 minutes. Concentrations of volatile anesthetics in the bath solutions were verified using a modified head-space gas chromatography method. The gas chromatograph (Carlo Erba, Milan, Italy) was equipped with a flame ionization detector (FID) and mass spectrometer. The carrier gas was hydrogen (60 kPa column head pressure) and the fused silica capillary column, coated with polysiloxane SE-30, was 25 m×0.25 mm. Injector temperature was 250° C., FID temperature was 300° C. and the oven was maintained at 90° C. Standards were prepared from a mixture of halothane, isoflurane, and sevoflurane dissolved in acetonitrile with enflurane as an internal standard.

[3] = rat at 37° C.; cited from earlier work
[4] = tested on: AITC-sensitive DRG neurons; experiment: Voltage- and current-clamp of DRG sensory neurons; type: cell-based, mouse; conditions: 0.9 mM, wild-type mice, voltage-clamp, 11 of 35
Procedure: as §1

FC(F)OC(F)C(F)(F)F (stereo not shown) [desflurane]
Activation of TRPA1 currents by VGAs (TRPA1 [1]): robustly activated
TRPA1 single-channel conductance in presence of VGA (TRPA1 [2]): ≈ 80 pS
Increase in maximal open probability of TRPA1 (TRPA1 [2]; cell-attached patches): > 6 fold
V1/2 of TRPA1 open probability in presence of desflurane (TRPA1 [2]; cell-attached patches, shifted from 72.1 mV): 42.5 mV
Single TRPA1 channel activity (TRPA1 [2]): enhanced single-channel gating; also recorded: activate single TRPA1 channels
Effect on AITC-evoked currents (hTRPA1): markedly enhanced
Enhancement of proton-evoked currents compared with isoflurane and sevoflurane (TRPV1; VGAs 0.6 mM, pH 5.5): significantly more
1 MAC equivalent aqueous concentration (published conversion factor) [3]: 0.51 mM

FC(F)OC(Cl)C(F)(F)F (stereo not shown) [isoflurane]
Activation of TRPA1 after AITC treatment (TRPA1 [1]): failed to activate
Activation of TRPA1 currents by VGAs (TRPA1 [1]): produced inward currents; also recorded: robustly activated
TRPA1 response at high concentration (TRPA1 [1]; 2.7 mM, additional blocking mechanism): reduced
EC50 of TRPA1 activation expressed in MAC (TRPA1 [1]; HEK293 cells): 0.57 MAC
Hill coefficient of TRPA1 activation (TRPA1 [1]; HEK293 cells): 1.6±0.2
EC50 (TRPA1 [1]; HEK293 cells, read-out: EC50 of TRPA1 activation): 180 ± 20 µM
Effect on TRPA1 when applied together with saturating octanol (TRPA1 [1]; isoflurane 0.9 mM + octanol 1.8 mM): negligible effects
Activation of TRPA1 at holding potential −50 mV (TRPA1 [1]; isoflurane 0.9 mM, octanol 1 mM): selectively activated
Concentration at peak of bimodal dose-response relationship (TRPA1 [1]; reduction at higher concentrations): ≈ 1 mM
TRPA1 single-channel conductance in presence of VGA (TRPA1 [2]): ≈ 60 pS
Single TRPA1 channel activity (TRPA1 [2]): enhanced single-channel gating; also recorded: activate single TRPA1 channels
Neurons with evoked currents [4]: 31%
Effect on AITC-evoked currents (hTRPA1): markedly enhanced
Temperature threshold of TRPV1 heat activation (TRPV1; 0.5 mM isoflurane): 43 °C
Temperature threshold of TRPV1 heat activation (TRPV1; 0.9 mM isoflurane): 40 °C
Enhancement of maximal proton-evoked current (TRPV1; isoflurane 0.9 mM): approximately 3 fold
Temperature threshold of TRPV1 heat activation after PDBu application (TRPV1; isoflurane 0.9 mM after PDBu, control 45.9±0.2): 32.8±0.8 °C
Enhancement of currents evoked by pH 5.5 solution (TRPV1; isoflurane 0.9 mM, n=4): approximately 10 fold
Maximal proton response as % of 10 μM capsaicin (TRPV1; isoflurane 0.9 mM, control 14.3%): 32.2%
1 MAC equivalent aqueous concentration (published conversion factor) [3]: 0.31 mM
